Each structure is given as a SMILES string. Values joined by “and” are separate entries in the source; they are usually repeats but may differ in a detail not shown here. Equal entries are not always repeated. Inconclusive results are not listed.

The test deals with MX-1 breast xenograft, nude mice, tumor weight T/C. Nature of the test: NCI In Vivo Anticancer Drug Screen. Data for tumor model Human Mammary Carcinoma MX-1 Xenograft (intrarenal inoculation) in NU/NU Swiss (nude) mice. The conditions noted are these: endpoint: mean tumor weight change, higher = larger tumour. The gist of the method: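 Tumor-bearing mice were treated with test compound alongside a vehicle-treated control group. Survival or tumor size was measured, and activity is expressed as the treated-group value divided by the control-group value.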

Setting [1] is: dose: 300.0 mg/kg/injection, schedule: Q04DX003 (sc), vehicle: saline.
[2] abbreviates: dose: 300.0 mg/kg/injection, schedule: Q04DX003 (sc), vehicle: saline with Tween-80.
Setting [3] is: dose: 600.0 mg/kg/injection, schedule: Q04DX003 (sc), vehicle: saline with Tween-80.
[4] abbreviates: dose: 1200.0 mg/kg/injection, schedule: Q04DX003 (sc), vehicle: saline with Tween-80.
[5] abbreviates: dose: 75.0 mg/kg/injection, schedule: Q04DX003 (sc), vehicle: saline.
The mark [6] stands for this setting: dose: 150.0 mg/kg/injection, schedule: Q04DX003 (sc), vehicle: saline.
[7] abbreviates: dose: 25.0 mg/kg/injection, schedule: Q01DX010 (sc), vehicle: Klucel (hydroxypropylcellulose) (HPC).
[8] abbreviates: dose: 2400.0 mg/kg/injection, schedule: Q04DX003 (sc), vehicle: saline with Tween-80.

Consider `C(COCCOCC1CO1)OCCOCC1CO1` (stereo not drawn), for which the T/C under setting [1] was 64 % of control and the T/C (dose: 600.0 mg/kg/injection, schedule: Q04DX003 (sc), vehicle: saline) is 29 % of control.
Turning to `Nc1nc2n[nH]nc2c(=O)[nH]1`, the T/C (dose: 75.0 mg/kg/injection, schedule: Q04DX003 (ip), vehicle: suspension in saline) was 22 % of control and 46 % of control; the T/C (dose: 75.0 mg/kg/injection, schedule: Q04DX003 (sc), vehicle: suspension in saline) is 35 % of control; the T/C (dose: 150.0 mg/kg/injection, schedule: Q04DX003 (ip), vehicle: suspension in saline) was 6 % of control; the T/C (dose: 150.0 mg/kg/injection, schedule: Q04DX003 (sc), vehicle: suspension in saline) was 18 % of control; the T/C (dose: 300.0 mg/kg/injection, schedule: Q04DX003 (ip), vehicle: suspension in saline) is 1 % of control; the T/C (dose: 600.0 mg/kg/injection, schedule: Q04DX003 (sc), vehicle: suspension in saline) is -77 % of control.
Turning to `CSc1ncc2ncn(C3OC(CO)C(O)C3O)c2n1` (stereo not drawn), the T/C reads like this: (dose: 300.0 mg/kg/injection, schedule: Q04DX003 (sc), vehicle: Klucel (hydroxypropylcellulose) (HPC)) 56 % of control; (dose: 600.0 mg/kg/injection, schedule: Q04DX003 (sc), vehicle: Klucel (hydroxypropylcellulose) (HPC)) 59 % of control; (dose: 1200.0 mg/kg/injection, schedule: Q04DX003 (sc), vehicle: Klucel (hydroxypropylcellulose) (HPC)) 37 % of control; (dose: 2400.0 mg/kg/injection, schedule: Q04DX003 (sc), vehicle: Klucel (hydroxypropylcellulose) (HPC)) 68 % of control.
In the case of `Nc1ccc2c(c1)CN1C(=O)c3ccccc3C1=N2`, the T/C was 203 % of control under setting [2], 168 % of control under setting [3] and 76 % of control under setting [4].
In the case of `CC(C)=CCNc1ncnc2c1ncn2C1OC(CO)C(O)C1O` (stereo not drawn), the T/C (dose: 100.0 mg/kg/injection, schedule: Q04DX003 (sc), vehicle: suspension in saline) is 122 % of control.
As to `CN(C)CC(Cl)CCl` (stereo not drawn), the T/C by setting is: under setting [5], 50 % of control; under setting [6], 85 % of control; under setting [1], 28 % of control.
For `COc1cc2cc(c1Cl)N(C)C(=O)CC(OC(=O)CC(C)C)C1(C)OC1C(C)C1CC(O)(NC(=O)O1)C(OC)/C=C/C=C(C)C2` (stereo not drawn), the T/C reads like this: (dose: 25.0 micrograms/kg/injection, schedule: Q01DX010 (sc), vehicle: saline + alcohol) -12 % of control; (dose: 100.0 micrograms/kg/injection, schedule: Q01DX010 (sc), vehicle: saline + alcohol) -54 % of control.
With `C[C@@H]1C[C@H]2[C@@H]3CCC4=CC(=O)C=C[C@]4(C)[C@@]3(F)[C@@H](O)C[C@]2(C)[C@@]1(O)C(=O)CO`, the T/C is 44 % of control (dose: 3.13 mg/kg/injection, schedule: Q01DX010 (sc), vehicle: Klucel (hydroxypropylcellulose) (HPC)); 28 % of control (dose: 6.25 mg/kg/injection, schedule: Q01DX010 (sc), vehicle: Klucel (hydroxypropylcellulose) (HPC)); 35 % of control (dose: 12.5 mg/kg/injection, schedule: Q01DX010 (sc), vehicle: Klucel (hydroxypropylcellulose) (HPC)); 33 % of control under setting [7].
As for `CCOC(OCC)C(=O)OCC(=O)[C@]1(O)Cc2c(O)c3c(c(O)c2[C@@H](OC2CC(N)C(O)C(C)O2)C1)C(=O)c1c(OC)cccc1C3=O` (stereo partly drawn), the T/C (dose: 4.0 mg/kg/injection, schedule: Q01DX010 (sc), vehicle: water) was 27 % of control and 44 % of control.
In the case of `OC(C1CO1)C(O)C1CO1` (stereo not drawn), where the note is “dose: 1.0 mg/kg/injection, schedule: Q01DX010 (sc), vehicle: saline”, the T/C is 5 % of control and 18 % of control.
As to `CC[C@H](CC[C@@H](C)C1CC[C@H]2[C@@H]3CC=C4C[C@@H](OP(=O)(N5CC5)N5CC5)CC[C@]4(C)[C@H]3CC[C@]12C)C(C)C` (stereo partly drawn), the T/C under setting [2] was 71 % of control, the T/C under setting [3] was 113 % of control, the T/C under setting [4] was 65 % of control and the T/C under setting [8] is 62 % of control.
For the molecule `CC1CC(C)CC(C)C(O)/C(C#N)=C/C=C/CC(C2CCCC2C(=O)O)OC(=O)CC(O)C(C)C1` (stereo not drawn), the T/C by setting is: (dose: 6.0 mg/kg/injection, schedule: Q04DX003 (sc), vehicle: Klucel (hydroxypropylcellulose) (HPC)) 87 % of control; (dose: 12.0 mg/kg/injection, schedule: Q04DX003 (sc), vehicle: Klucel (hydroxypropylcellulose) (HPC)) 79 % of control.
As for `COc1cc2cc(c1Cl)N(C)C(=O)CC(OC(=O)C(C)C)C1(C)OC1C(C)C1CC(O)(NC(=O)O1)C(OC)/C=C/C=C(C)C2` (stereo not drawn), the T/C reads like this: (dose: 1.56 micrograms/kg/injection, schedule: Q01DX010 (sc), vehicle: saline + alcohol) 40 % of control; (dose: 3.12 micrograms/kg/injection, schedule: Q01DX010 (sc), vehicle: saline + alcohol) 67 % of control; (dose: 6.25 micrograms/kg/injection, schedule: Q01DX010 (sc), vehicle: saline + alcohol) 53 % of control; (dose: 12.5 micrograms/kg/injection, schedule: Q01DX010 (sc), vehicle: saline + alcohol) 67 % of control.
With `Nc1nnc[se]1`, the T/C reads like this: (dose: 100.0 mg/kg/injection, schedule: Q04DX003 (sc), vehicle: saline with Tween-80) 54 % of control; (dose: 1600.0 mg/kg/injection, schedule: Q04DX003 (sc), vehicle: saline with Tween-80) 74 % of control.
As to `Nc1nc2c(ncn2C2OC(CO)C(O)C2O)c(=O)[nH]1.Nc1nc2c(ncn2C2OC(CO)C(O)C2O)c(=O)[nH]1.[NH2-].[NH2-].[Pt+2]` (stereo not drawn), the T/C is 68 % of control (dose: 300.0 mg/kg/injection, schedule: Q04DX003 (sc), vehicle: water); 22 % of control (dose: 600.0 mg/kg/injection, schedule: Q04DX003 (sc), vehicle: water); 3 % of control (dose: 1200.0 mg/kg/injection, schedule: Q04DX003 (sc), vehicle: water).
For the molecule `Cc1ccc(S(=O)(=O)N/N=C/C(=O)O)cc1`, the T/C by setting is: under setting [7], 90 % of control; (dose: 50.0 mg/kg/injection, schedule: Q01DX010 (sc), vehicle: Klucel (hydroxypropylcellulose) (HPC)) 103 % of control; (dose: 400.0 mg/kg/injection, schedule: Q01DX010 (sc), vehicle: Klucel (hydroxypropylcellulose) (HPC)) 58 % of control; (dose: 800.0 mg/kg/injection, schedule: Q01DX010 (sc), vehicle: Klucel (hydroxypropylcellulose) (HPC)) 71 % of control.
For the molecule `CC(C)(C)NC(C1=CC(C)(C)c2ccccc2C1=O)c1ccccc1` (stereo not drawn), the T/C was 87 % of control (dose: 150.0 mg/kg/injection, schedule: Q04DX003 (ip), vehicle: Klucel (hydroxypropylcellulose) (HPC)) and 75 % of control (dose: 300.0 mg/kg/injection, schedule: Q04DX003 (ip), vehicle: Klucel (hydroxypropylcellulose) (HPC)).
As for `N#CCCSC(=S)C1CCCC1=N` (stereo not drawn), the T/C is 76 % of control under setting [2], 87 % of control under setting [3], 76 % of control under setting [4] and 85 % of control under setting [8].
Consider `O=[Te]=O`, for which the T/C (dose: 12.5 mg/kg/injection, schedule: Q04DX003 (sc), vehicle: suspension in saline) was 91 % of control; the T/C (dose: 25.0 mg/kg/injection, schedule: Q04DX003 (sc), vehicle: suspension in saline) is 79 % of control; the T/C (dose: 50.0 mg/kg/injection, schedule: Q04DX003 (sc), vehicle: suspension in saline) was 122 % of control.
For `CCOC(=O)C(C)(C)Oc1ccc(Cl)cc1`, the T/C is 95 % of control under setting [2], 90 % of control under setting [3] and 71 % of control under setting [4].
For the molecule `O=C(O)C(O)C(O)C1[O][Sb][O]C1C(=O)O` (stereo not drawn), the T/C is 91 % of control under setting [5] and 99 % of control under setting [6].
As for `C/C=C(\C)c1cc(=O)c2c(C)cc3c(c2o1)C(=O)c1c(O)c(C2CC(C)(N(C)C)C(O)C(C)O2)cc(C2CC(N(C)C)C(O)C(C)O2)c1C3=O` (stereo not drawn), the T/C is, setting by setting: (dose: 2.0 mg/kg/injection, schedule: Q04DX003 (sc), vehicle: saline) 41 % of control; (dose: 4.0 mg/kg/injection, schedule: Q04DX003 (sc), vehicle: saline) 24 % of control; (dose: 8.0 mg/kg/injection, schedule: Q04DX003 (sc), vehicle: saline) 28 % of control.
For the molecule `[CH3][Sn]([CH3])([Cl])[c]1cc[c]([Sn]([CH3])([CH3])[Cl])cc1`, the T/C by setting is: (dose: 1.25 mg/kg/injection, schedule: Q04DX003 (ip), vehicle: saline) 98 % of control; (dose: 2.5 mg/kg/injection, schedule: Q04DX003 (ip), vehicle: saline) 101 % of control; (dose: 5.0 mg/kg/injection, schedule: Q04DX003 (ip), vehicle: saline) 89 % of control.
Turning to `COc1cc2c(c(OC)c1OC)-c1ccc(OC)c(=O)cc1[C@@H](NC(C)=O)CC2`, the T/C by setting is: (dose: 0.25 mg/kg/injection, schedule: Q01DX010 (sc), vehicle: saline) 94 % of control; (dose: 0.5 mg/kg/injection, schedule: Q01DX010 (sc), vehicle: saline) 30 % of control.

The values above are taken from PubChem BioAssay AID296 (DTP/NCI, 2004).
